Measurements published in ChEMBL document CHEMBL1128935, “Synthesis and antibacterial, activity of 4-ureido trinems” (1996).
Values after ≈ are worked out from the molar mass of the structure shown.

system: Bacteroides fragilis; assay: In vitro antibacterial activity against Bacteroides fragilis 2017.; type: functional

Going from `C[C@@H](O)[C@H]1C(=O)N2C(C(=O)[O-])=C3[C@H](CCC[C@@H]3N(C)C(=O)NCCO)[C@H]12.[Na+]` to `CCNC(=O)N(C)[C@H]1CCC[C@H]2C1=C(C(=O)[O-])N1C(=O)[C@H]([C@@H](C)O)[C@@H]21.[Na+]`, the MIC rises from 0.25 µg/mL to 0.5 µg/mL (2-fold).

Going from `C[C@@H](O)[C@H]1C(=O)N2C(C(=O)[O-])=C3[C@H](CCC[C@@H]3N(C)C(=O)NC(C)(C)C)[C@H]12.[Na+]` to `C[C@@H](O)[C@H]1C(=O)N2C(C(=O)[O-])=C3[C@H](CCC[C@@H]3N(C)C(N)=O)[C@H]12.[Na+]`, the MIC falls from 0.5 µg/mL to less than 0.12 µg/mL.

`C[C@@H](O)[C@H]1C(=O)N2C(C(=O)O)=C(SCCNC=N)C[C@H]12` [IMIPENEM ANHYDROUS] and `CO[C@H]1CCC[C@H]2C1=C(C(=O)[O-])N1C(=O)[C@H]([C@@H](C)O)[C@@H]21.[Na+]` [SANFETRINEM SODIUM] are the same in MIC: 0.06 µg/mL (≈ 0.2 µM) for the first, 0.06 µg/mL for the second.

system: Clostridium perfringens; assay: In vitro antibacterial activity against Clostridium perfringens 615.; type: functional

`C[C@@H](O)[C@H]1C(=O)N2C(C(=O)[O-])=C3[C@H](CCC[C@@H]3N(C)C(=O)NCCO)[C@H]12.[Na+]` and `CCNC(=O)N(C)[C@H]1CCC[C@H]2C1=C(C(=O)[O-])N1C(=O)[C@H]([C@@H](C)O)[C@@H]21.[Na+]` cannot be ordered by MIC: less than 0.12 µg/mL for the first, less than 0.12 µg/mL for the second.

`C[C@@H](O)[C@H]1C(=O)N2C(C(=O)[O-])=C3[C@H](CCC[C@@H]3N(C)C(=O)NC(C)(C)C)[C@H]12.[Na+]` and `C[C@@H](O)[C@H]1C(=O)N2C(C(=O)[O-])=C3[C@H](CCC[C@@H]3N(C)C(N)=O)[C@H]12.[Na+]` cannot be ordered by MIC: less than 0.12 µg/mL for the first, less than 0.12 µg/mL for the second.

`C[C@@H](O)[C@H]1C(=O)N2C(C(=O)O)=C(SCCNC=N)C[C@H]12` [IMIPENEM ANHYDROUS] and `CO[C@H]1CCC[C@H]2C1=C(C(=O)[O-])N1C(=O)[C@H]([C@@H](C)O)[C@@H]21.[Na+]` [SANFETRINEM SODIUM] are the same in MIC: 0.03 µg/mL (≈ 0.1 µM) for the first, 0.03 µg/mL for the second.

system: Escherichia coli; assay: In vitro antibacterial activity against Escherichia coli 1850 WT.; type: functional

Compared with `C[C@@H](O)[C@H]1C(=O)N2C(C(=O)[O-])=C3[C@H](CCC[C@@H]3N(C)C(=O)NCCO)[C@H]12.[Na+]`, `CCNC(=O)N(C)[C@H]1CCC[C@H]2C1=C(C(=O)[O-])N1C(=O)[C@H]([C@@H](C)O)[C@@H]21.[Na+]` is 4-fold higher in MIC: 0.5 µg/mL for the first, 2 µg/mL for the second.

Compared with `C[C@@H](O)[C@H]1C(=O)N2C(C(=O)[O-])=C3[C@H](CCC[C@@H]3N(C)C(=O)NC(C)(C)C)[C@H]12.[Na+]`, `C[C@@H](O)[C@H]1C(=O)N2C(C(=O)[O-])=C3[C@H](CCC[C@@H]3N(C)C(N)=O)[C@H]12.[Na+]` is 16-fold lower in MIC: 4 µg/mL for the first, 0.25 µg/mL for the second.

`C[C@@H](O)[C@H]1C(=O)N2C(C(=O)O)=C(SCCNC=N)C[C@H]12` [IMIPENEM ANHYDROUS] and `CO[C@H]1CCC[C@H]2C1=C(C(=O)[O-])N1C(=O)[C@H]([C@@H](C)O)[C@@H]21.[Na+]` [SANFETRINEM SODIUM] are the same in MIC: 0.5 µg/mL (≈ 1.67 µM) for the first, 0.5 µg/mL for the second.

system: Escherichia coli; assay: In vitro antibacterial activity against Escherichia coli 1919 PM.; type: functional

First: C[C@@H](O)[C@H]1C(=O)N2C(C(=O)[O-])=C3[C@H](CCC[C@@H]3N(C)C(=O)NCCO)[C@H]12.[Na+]
Second: CCNC(=O)N(C)[C@H]1CCC[C@H]2C1=C(C(=O)[O-])N1C(=O)[C@H]([C@@H](C)O)[C@@H]21.[Na+]
The MIC of the first is lower: less than 0.12 µg/mL for the first, 0.25 µg/mL for the second.

Going from `C[C@@H](O)[C@H]1C(=O)N2C(C(=O)[O-])=C3[C@H](CCC[C@@H]3N(C)C(=O)NC(C)(C)C)[C@H]12.[Na+]` to `C[C@@H](O)[C@H]1C(=O)N2C(C(=O)[O-])=C3[C@H](CCC[C@@H]3N(C)C(N)=O)[C@H]12.[Na+]`, the MIC falls from 0.5 µg/mL to less than 0.12 µg/mL.

`C[C@@H](O)[C@H]1C(=O)N2C(C(=O)O)=C(SCCNC=N)C[C@H]12` [IMIPENEM ANHYDROUS] and `CO[C@H]1CCC[C@H]2C1=C(C(=O)[O-])N1C(=O)[C@H]([C@@H](C)O)[C@@H]21.[Na+]` [SANFETRINEM SODIUM] are the same in MIC: 0.5 µg/mL (≈ 1.67 µM) for the first, 0.5 µg/mL for the second.

system: Pseudomonas aeruginosa; assay: In vitro antibacterial activity against Pseudomonas aeruginosa 2032 WT.; type: functional

Compared with `C[C@@H](O)[C@H]1C(=O)N2C(C(=O)[O-])=C3[C@H](CCC[C@@H]3N(C)C(=O)NCCO)[C@H]12.[Na+]`, `CCNC(=O)N(C)[C@H]1CCC[C@H]2C1=C(C(=O)[O-])N1C(=O)[C@H]([C@@H](C)O)[C@@H]21.[Na+]` is 2-fold lower in MIC: 8 µg/mL for the first, 4 µg/mL for the second.

First: C[C@@H](O)[C@H]1C(=O)N2C(C(=O)[O-])=C3[C@H](CCC[C@@H]3N(C)C(=O)NC(C)(C)C)[C@H]12.[Na+]
Second: C[C@@H](O)[C@H]1C(=O)N2C(C(=O)[O-])=C3[C@H](CCC[C@@H]3N(C)C(N)=O)[C@H]12.[Na+]
The MIC of the first is 2-fold higher: 2 µg/mL for the first, 1 µg/mL for the second.

Going from `C[C@@H](O)[C@H]1C(=O)N2C(C(=O)O)=C(SCCNC=N)C[C@H]12` [IMIPENEM ANHYDROUS] to `CO[C@H]1CCC[C@H]2C1=C(C(=O)[O-])N1C(=O)[C@H]([C@@H](C)O)[C@@H]21.[Na+]` [SANFETRINEM SODIUM], the MIC rises from 4 µg/mL (≈ 13.4 µM) to 16 µg/mL (4-fold).

system: Pseudomonas aeruginosa; assay: In vitro antibacterial activity against Pseudomonas aeruginosa P. aeruginosa 1911.; type: functional

`C[C@@H](O)[C@H]1C(=O)N2C(C(=O)[O-])=C3[C@H](CCC[C@@H]3N(C)C(=O)NCCO)[C@H]12.[Na+]` and `CCNC(=O)N(C)[C@H]1CCC[C@H]2C1=C(C(=O)[O-])N1C(=O)[C@H]([C@@H](C)O)[C@@H]21.[Na+]` are the same in MIC: 16 µg/mL for the first, 16 µg/mL for the second.

First: C[C@@H](O)[C@H]1C(=O)N2C(C(=O)[O-])=C3[C@H](CCC[C@@H]3N(C)C(=O)NC(C)(C)C)[C@H]12.[Na+]
Second: C[C@@H](O)[C@H]1C(=O)N2C(C(=O)[O-])=C3[C@H](CCC[C@@H]3N(C)C(N)=O)[C@H]12.[Na+]
The MIC of the first is 2-fold higher: 16 µg/mL for the first, 8 µg/mL for the second.

First: C[C@@H](O)[C@H]1C(=O)N2C(C(=O)O)=C(SCCNC=N)C[C@H]12 [IMIPENEM ANHYDROUS]
Second: CO[C@H]1CCC[C@H]2C1=C(C(=O)[O-])N1C(=O)[C@H]([C@@H](C)O)[C@@H]21.[Na+] [SANFETRINEM SODIUM]
The MIC of the first is lower: 4 µg/mL (≈ 13.4 µM) for the first, greater than 32 µg/mL for the second.

system: Streptococcus pneumoniae; assay: In vitro antibacterial activity against Streptococcus pneumoniae 3512.; type: functional

`C[C@@H](O)[C@H]1C(=O)N2C(C(=O)[O-])=C3[C@H](CCC[C@@H]3N(C)C(=O)NCCO)[C@H]12.[Na+]` and `CCNC(=O)N(C)[C@H]1CCC[C@H]2C1=C(C(=O)[O-])N1C(=O)[C@H]([C@@H](C)O)[C@@H]21.[Na+]` cannot be ordered by MIC: less than 0.12 µg/mL for the first, less than 0.12 µg/mL for the second.

`C[C@@H](O)[C@H]1C(=O)N2C(C(=O)[O-])=C3[C@H](CCC[C@@H]3N(C)C(=O)NC(C)(C)C)[C@H]12.[Na+]` and `C[C@@H](O)[C@H]1C(=O)N2C(C(=O)[O-])=C3[C@H](CCC[C@@H]3N(C)C(N)=O)[C@H]12.[Na+]` cannot be ordered by MIC: less than 0.12 µg/mL for the first, less than 0.12 µg/mL for the second.

`C[C@@H](O)[C@H]1C(=O)N2C(C(=O)O)=C(SCCNC=N)C[C@H]12` [IMIPENEM ANHYDROUS] and `CO[C@H]1CCC[C@H]2C1=C(C(=O)[O-])N1C(=O)[C@H]([C@@H](C)O)[C@@H]21.[Na+]` [SANFETRINEM SODIUM] cannot be ordered by MIC: less than 0.01 µg/mL for the first, less than 0.01 µg/mL for the second.

system: Staphylococcus aureus; assay: In vitro antibacterial activity against Staphylococcus aureus 853.; type: functional

`C[C@@H](O)[C@H]1C(=O)N2C(C(=O)[O-])=C3[C@H](CCC[C@@H]3N(C)C(=O)NCCO)[C@H]12.[Na+]` and `CCNC(=O)N(C)[C@H]1CCC[C@H]2C1=C(C(=O)[O-])N1C(=O)[C@H]([C@@H](C)O)[C@@H]21.[Na+]` are the same in MIC: 0.25 µg/mL for the first, 0.25 µg/mL for the second.

Going from `C[C@@H](O)[C@H]1C(=O)N2C(C(=O)[O-])=C3[C@H](CCC[C@@H]3N(C)C(=O)NC(C)(C)C)[C@H]12.[Na+]` to `C[C@@H](O)[C@H]1C(=O)N2C(C(=O)[O-])=C3[C@H](CCC[C@@H]3N(C)C(N)=O)[C@H]12.[Na+]`, the MIC falls from 0.5 µg/mL to less than 0.12 µg/mL.

Compared with `C[C@@H](O)[C@H]1C(=O)N2C(C(=O)O)=C(SCCNC=N)C[C@H]12` [IMIPENEM ANHYDROUS], `CO[C@H]1CCC[C@H]2C1=C(C(=O)[O-])N1C(=O)[C@H]([C@@H](C)O)[C@@H]21.[Na+]` [SANFETRINEM SODIUM] is 2.5-fold higher in MIC: 0.1 µg/mL (≈ 0.334 µM) for the first, 0.25 µg/mL for the second.
